Reference: PubChem BioAssay AID2060340 (Molecular Pharmacology Branch, DTP, NCI, 2025)
Values joined by “and” are separate entries in the source; they are usually repeats but may differ in a detail not shown here. Equal entries are not always repeated.

Tested on: 349418-098-R-PDC spheroids, viability, % test/control
Assay: Anticancer human tumor 349418-098-R-PDC patient-derived lung adenocarcinoma cell line growth inhibition [IpAb]
Settings: spheroids with HUVEC and MSC; for viability, T/C: stronger effect = lower value
Procedure, shortened: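 Multi-cell spheroids of 60% tumour cells, 25% HUVEC and 15% MSC in ultra-low-attachment U-bottom wells, treated with agents combined with ipatasertib or abemaciclib. Half-log ranges top out near clinical Cmax, or 10 microM when Cmax is unknown.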
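Also: spheroids exposed to compounds for 7 days.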

Molecule `Cn1ncnc1[C@H]1c2n[nH]c(=O)c3cc(F)cc(c23)N[C@@H]1c1ccc(F)cc1` + CC(C)NCC(C(=O)N1CCN(c2ncnc3c2C(C)CC3O)CC1)c1ccc(Cl)cc1 has an IC50 (curve of first compound, second compound 0.1 µM) greater than 100 nM, an IC50 (curve of first compound, second compound 0.316 µM) of 0.621 nM and an IC50 (curve of first compound, second compound 1 µM) of less than 0.316 nM. It also gave an IC50 (curve of first compound, second compound 3.16 µM) of less than 0.316 nM, an IC50 (curve of first compound, second compound 10 µM) of less than 0.316 nM and a viability, T/C (second compound 0.1 µM, first compound 0.000316 µM) of 82.5%. For the same molecule, the viability, T/C (second compound 0.1 µM, first compound 0.001 µM) was 80.5%, the viability, T/C (second compound 0.1 µM, first compound 0.00316 µM) was 77.3% and the viability, T/C (second compound 0.1 µM, first compound 0.01 µM) was 70%. For the same molecule, the viability, T/C (second compound 0.1 µM, first compound 0.0316 µM) was 68.7%, the viability, T/C (second compound 0.1 µM, first compound 0.1 µM) was 76.7% and the viability, T/C (second compound 0.316 µM, first compound 0.000316 µM) was 52.6%. For the same molecule, the viability, T/C (second compound 0.316 µM, first compound 0.001 µM) was 48.4%, the viability, T/C (second compound 0.316 µM, first compound 0.00316 µM) was 42.8% and the viability, T/C (second compound 0.316 µM, first compound 0.01 µM) was 46.8%. The viability, T/C (second compound 0.316 µM, first compound 0.0316 µM) was 41.7%, the viability, T/C (second compound 0.316 µM, first compound 0.1 µM) was 37% and the viability, T/C (second compound 1 µM, first compound 0.000316 µM) was 26.4%. For the same molecule, the viability, T/C (second compound 1 µM, first compound 0.001 µM) was 24.1%, the viability, T/C (second compound 1 µM, first compound 0.00316 µM) was 18.9% and the viability, T/C (second compound 1 µM, first compound 0.01 µM) was 16.7%. For the same molecule, the viability, T/C (second compound 1 µM, first compound 0.0316 µM) was 17.2%, the viability, T/C (second compound 1 µM, first compound 0.1 µM) was 17.1% and the viability, T/C (second compound 3.16 µM, first compound 0.000316 µM) was 13.8%. It also gave a viability, T/C (second compound 3.16 µM, first compound 0.001 µM) of 15.8%, a viability, T/C (second compound 3.16 µM, first compound 0.00316 µM) of 11.1% and a viability, T/C (second compound 3.16 µM, first compound 0.01 µM) of 10.2%. The viability, T/C (second compound 3.16 µM, first compound 0.0316 µM) was 9.16%, the viability, T/C (second compound 3.16 µM, first compound 0.1 µM) was 7.75% and the viability, T/C (second compound 10 µM, first compound 0.000316 µM) was 9.03%. For the same molecule, the viability, T/C (second compound 10 µM, first compound 0.001 µM) was 7.63%, the viability, T/C (second compound 10 µM, first compound 0.00316 µM) was 6.62% and the viability, T/C (second compound 10 µM, first compound 0.01 µM) was 6.38%. For the same molecule, the viability, T/C (second compound 10 µM, first compound 0.0316 µM) was 5.72% and the viability, T/C (second compound 10 µM, first compound 0.1 µM) was 6.34%.

For `CC1(C)CCC(CN2CCN(c3ccc(C(=O)NS(=O)(=O)c4ccc(NCC5CCOCC5)c([N+](=O)[O-])c4)c(Oc4cnc5[nH]ccc5c4)c3)CC2)=C(c2ccc(Cl)cc2)C1`, the viability, T/C (compound 0.0316 µM) was 110% and 115%, the viability, T/C (compound 0.1 µM) was 109% and 94.8% and the viability, T/C (compound 0.316 µM) was 107% and 101%. For the same molecule, the viability, T/C (compound 1 µM) was 103% and 106%, the viability, T/C (compound 3.16 µM) was 82.2% and 92.3% and the viability, T/C (compound 10 µM) was 6.95% and 3.46%. For the same molecule, the IC50 (curve of compound) was 5170 nM and 5470 nM.
